# Data taken from patent US9029337B2, “Modulation of factor 7 expression” (Isis Pharmaceuticals, Inc., priority 2007, dated 2015).
# Strand notation (5' to 3'): a small letter for the sugar, then the base; units joined by * are phosphorothioate-linked, units joined directly phosphodiester-linked; [ ] holds rarer units or linkages, { } end groups; capitals alone tell only the bases. e = 2'-O-(2-methoxyethyl) (MOE); [5mC] = 5-methylcytosine; d = 2'-deoxy (DNA)
# System: human Factor 7 mRNA
# Experiment: Antisense inhibition of human Factor 7 with short (14-mer) oligonucleotides in HepB3 cells, electroporation 1,000 nM
# Type: cell-based
# Settings: electroporation, 1,000 nM antisense oligonucleotide, approximately 24 hours, Factor 7 mRNA relative to untreated control cells
# From the text: Short antisense oligonucleotides (shortmers) were designed to target a Factor 7 nucleic acid. The shortmers in Table 17 were designed as 2-10-2 MOE gapmers. The gapmers are 14 nucleotides in length, wherein the central gap segment is comprised of 10 2′-deoxynucleotides and is flanked on both sides (in the 5′ and 3′ directions) by wings comprising 2 nucleotides each. Each nucleotide in the 5′ wing segment and each nucleotide in the 3′ wing segment has a 2′-MOE modification. The internucleoside linkages throughout each gapmer are phosphorothioate (P═S) linkages. All cytidine residues throughout each gapmer are 5-methylcytidines.
# Shortmers were evaluated for their ability to reduce human Factor 7 mRNA in HepB3 cells and compared with one 5-10-5 chimeric oligonucleotide from Table 16, ISIS 407939. HepB3 cells at a density of 20,000 cells per well in a 96-well plate were transfected using electroporation with 1,000 nM of antisense oligonucleotide. After a treatment period of approximately 24 hours, RNA was isolated from the cells and Factor 7 mRNA levels were measured by real-time RT-PCR, as described herein. Factor 7 mRNA levels were adjusted according to total RNA content as measured by RIBOGREEN®. Results are presented in Table 17 as percent inhibition of Factor 7 mRNA, relative to untreated control cells. ISIS 407939 is the first oligonucleotide in Table 17 to which the shortmers were compared, and is marked by an asterisk (*).
row,Substance,% Inhibition [%]
1,435480 (antisense eG*eG*dT*d[5mC]*dA*dT*d[5mC]*dA*dG*d[5mC]*d[5mC]*dG*eG*eG) [compound 435480],53
2,435481 (antisense eG*eG*dG*dT*d[5mC]*dA*dT*d[5mC]*dA*dG*d[5mC]*d[5mC]*eG*eG) [compound 435481],50
3,435482 (antisense eT*eG*dG*dG*dT*d[5mC]*dA*dT*d[5mC]*dA*dG*d[5mC]*e[5mC]*eG) [compound 435482],62
4,435483 (antisense e[5mC]*eT*dG*dG*dG*dT*d[5mC]*dA*dT*d[5mC]*dA*dG*e[5mC]*e[5mC]) [compound 435483],82
5,435484 (antisense e[5mC]*e[5mC]*dT*dG*dG*dG*dT*d[5mC]*dA*dT*d[5mC]*dA*eG*e[5mC]) [compound 435484],45
6,435485 (antisense eT*e[5mC]*d[5mC]*dT*dG*dG*dG*dT*d[5mC]*dA*dT*d[5mC]*eA*eG) [compound 435485],34
7,435486 (antisense eG*eT*d[5mC]*d[5mC]*dT*dG*dG*dG*dT*d[5mC]*dA*dT*e[5mC]*eA) [compound 435486],64
8,435487 (antisense eA*eG*dT*d[5mC]*d[5mC]*dT*dG*dG*dG*dT*d[5mC]*dA*eT*e[5mC]) [compound 435487],36
